This passage reports IC50 results from US5508450A, “Benzopyran derivatives” (Ono Pharmaceutical Co., Ltd., priority 1989, dated 1996).

SMILES strings stand for the structures. Counter-ions that a name gives are not always drawn.

The test system of the assay is Lysozyme (dimer formation with fructose). Description: Inhibitory activity on Maillard reaction: formation of lysozyme dimer (lysozyme + fructose, SDS-PAGE, densitometer). The format is biochemical. To be noted: lysozyme 10 mg/ml, fructose 100 mM, 0.2M sodium phosphate buffer pH 7.4, 37° C., 3 days. The procedure:
The inhibitory activity on Maillard reaction of the compounds of the present invention has confirmed by the screening system mentioned below. Lysozyme (10 mg/ml) and fructose (100 mM) were dissolved in 0.2M sodium phosphatic buffer solution (PH 7.4). The solution was incubated at a temperature of 37° C. for 3 days. A given volume of the reaction solution was separated using SDS-PAGE by the electrophoresis. After the electrophoresis, the SDS-PAGE was dyed by 0.2% Coomassie Brilliant Blue R-250 and then the dimer was determined by densitometer. The compounds of the present invention were added before incubation and the inhibitory activity of them against the formation of the dimer was examined in various concentrations and IC50 values were calculated.
For orientation: IC50 means the midpoint of a concentration-inhibition curve. With `COc1c(O)c(C)c2c(c1OC)OC(C)(CCOC(=O)c1ccc(NC(=N)N)cc1)CC2` (stereo not shown) [1 (d), 2-(2,5-dimethyl-6-hydroxy-7,8-dimethoxy-3,4-di-hydro-2H-benzo[1,2-b]pyran-2-yl)-ethyl4-quanidinobenzoate hydrochloride], the IC50 is 340 µM. Then `Cc1c(C)c2c(c(C)c1O)CCC(C)(CCOC(=O)c1cccc(NC(=N)N)c1)O2` (stereo not shown) [1 (i), 2-(6-hydroxy-2,5,7,8-tetramethyl-3,4-dihydro-2H-benzo[1,2-b]pyran-2-yl)ethyl3-quanidinobenzoate hydrochloride], with 100 µM; and `Cc1c(C)c2c(c(C)c1O)CCC(C)(CCNC(=O)/C=C/c1ccc(NC(=N)N)cc1)O2` (stereo not shown) [2 (e), N-[2-(6-hydroxy-2,5,7,8-tetramethyl-3,4-dihydro-2H-benzo[1,2-b]pyran-2-yl)-ethyl]4-quanidinocinnam-amide hydrochloride], with 190 µM; and `Cc1c2c(c3ccccc3c1O)OC(C)(CCNC(=O)c1cccc(NC(=N)N)c1)CC2` (stereo not shown) [2 (f), hydrochloride], with 150 µM. The same measure for `Cc1c(C)c2c(c(C)c1O)CCC(C)(CCOc1ccc(NC(=N)N)cc1C(F)(F)F)O2` (stereo not shown) [5 (b), 2-trifluoromethyl-4-guanidinophenyl 2-(6-hydroxy-2,5,7,8-tetra-methyl-3,4-dihydro-2H-benzo[1,2-b]pyran-2-yl)ethyl ether hydrochloride]: 74 µM.

Take `Cc1cc(OCCC2(C)CCc3c(C)c(O)c(C)c(C)c3O2)ccc1NC(=N)N` (stereo not shown) [5 (c), 3-methyl-4-guanidino-phenyl 2-(6-hydroxy-2,5,7,8-tetramethyl-3,4-dihydro-2H-benzo[1,2-b]pyran-2-yl)ethyl ether hydrochloride]: the IC50 is 500 µM.

In the case of `Cc1c2c(c3ccccc3c1O)OC(C)(CCOc1ccc(NC(=N)N)cc1)CC2` (stereo not shown) [5 (f), 4-guanidinophenyl 2-(2,5-dimethyl-6-hydroxy-3,4-dihydro-2H-naphtho[1,2-b]-pyran-2-yl)ethyl ether hydrochloride], the IC50 worked out at 22 µM. The same measure for `Cc1c(C)c2c(c(C)c1O)CCC(C)(CCOc1ccc(NC(=O)c3cccc(NC(=N)N)c3)cc1)O2` (stereo not shown) [7 (a), N-[4-[2-(6-hydroxy-2,5,7,8-tetramethyl-3,4-dihydro-2H-benzo[1,2-b]pyran-2-yl)-ethoxy]phenyl]-3-guanidino-benzamide hydrochloride]: 200 µM; for `Cc1c(C)c2c(c(C)c1O)CCC(C)(CCOc1ccc(NC(=O)/C=C/c3ccc(NC(=N)N)cc3)cc1C(F)(F)F)O2` (stereo not shown) [7 (c), N-[3-trifluoromethyl-4-[2-(6-hydroxy-2,5,7,8-tetramethyl-3,4-dihydro-2H-benzo[1,2-b]pyran-2-yl)-ethoxy]phenyl]-4-guanidino-cinnamamide hydrochloride]: 4.8 µM; for `CC(=O)Nc1cc(NC(=O)/C=C/c2ccc(NC(=N)N)cc2)ccc1OCCC1(C)CCc2c(C)c(O)c(C)c(C)c2O1` (stereo not shown) [7 (d), N-[3-acetoamide-4-[2-(6-hydroxy-2,5,7,8-tetramethyl-3,4-dihydro-2H-benzo[1,2-b]-pyran-2-yl)ethoxy]phenyl]-4-guanidinocinnamamidehydrochloride]: 48 µM. On to `COc1cc(NC(=O)/C=C/c2ccc(NC(=N)N)cc2)ccc1OCCC1(C)CCc2c(C)c(O)c(C)c(C)c2O1` (stereo not shown) [7 (e)], for which the IC50 came out at 30 µM. The same measure for `Cc1cc(OCCC2(C)CCc3c(C)c(O)c(C)c(C)c3O2)ccc1NC(=O)/C=C/c1ccc(NC(=N)N)cc1` (stereo not shown) [7 (f), N-[2-methyl-4-[2-(6-hydroxy-2,5,7,8-tetramethyl-3,4-dihydro-2H-benzo[1,2-b]pyran-2-yl)ethoxy]phenyl]-4-guanidinocinnamamidehydrochloride]: 18 µM. On to `Cc1c(C)c2c(c(C)c1O)CCC(C)(CCSc1ccc(NC(=O)c3ccc(NC(=N)N)cc3)cc1)O2` (stereo not shown) [7 (h), N-[4-[2-(6-hydroxy-2,5,7,8-tetramethyl-3,4-dihydro-2H-benzo[1,2-b]pyran-2-yl)-ethylthio]phenyl]-4-guanidinobenzamidehydrochloride], for which the IC50 is 19 µM.
